The text below walks through data of US5051132A, “Lyophilized preparation of 6-(3-dimethylaminopropionyl)forskolin” (priority 1989, dated 1991).

The nature of this data set: Stability and solubility of 6-(3-dimethylaminopropionyl)forskolin in aqueous solution. Type of data set: physicochemical.

Molecules are shown by their SMILES.

Take `C=CC1(C)CC(=O)C2(O)C(C)(O1)C(OC(C)=O)C(OC(=O)CCN(C)C)C1C(C)(C)CCC(O)C12C` (centres unmarked) [6-(3-dimethylaminopropionyl)forskolin]: where the note is “aqueous solution”, the “stability in the state of aqueous solution” value was “unstable in the state of aqueous solution”. In addition, the “stability and solubility in the pH range of about 3 to about 6” value (pH about 3 to about 6) was “keeps stable and exhibits a good solubility”.
